Results: patent US5840684A, “Glycopeptide antibiotic derivatives” (Eli Lilly and Company, priority 1995, dated 1998)
Converted amounts (≈) assume the structure as drawn.

Experiments:
[1] = tested on: Staphylococcus aureus S13E; type: cell-based
Procedure: (§1) The MIC's were determined using a standard broth micro-dilution assay.

[2] = tested on: Staphylococcus aureus SA1199B; type: cell-based
Procedure: as §1

[3] = tested on: Entercoccus faecium 180-1; assay: broth micro-dilution MIC; type: cell-based
Procedure: as §1

Entercoccus faecium 276 = assay: broth micro-dilution MIC; type: cell-based
Procedure: as §1

[4] = tested on: Staphylococcus aureus 446; assay: broth micro-dilution MIC; type: cell-based
Procedure: as §1

[5] = tested on: Staphylococcus aureus 447; assay: broth micro-dilution MIC; type: cell-based
Procedure: as §1

[6] = tested on: Staphylococcus aureus 489; assay: broth micro-dilution MIC; type: cell-based
Procedure: as §1

[7] = tested on: Staphylococcus aureus X400; assay: broth micro-dilution MIC; type: cell-based
Procedure: as §1

[8] = tested on: Staphylococcus aureus X778; assay: broth micro-dilution MIC; type: cell-based
Procedure: as §1

[9] = tested on: Streptococcus pyogenes C203; assay: broth micro-dilution MIC; type: cell-based
Procedure: as §1

Entercoccus faecium 180 = assay: broth micro-dilution MIC; type: cell-based; conditions: Entercoccus faecium 180
Procedure: (§2) The formula I compounds have in vitro and in vivo activity against Gram-positive pathogenic bacteria. The MIC's were determined using a standard broth micro-dilution assay.

[10] = tested on: Enterococcus gallinarum 245; assay: broth micro-dilution MIC; type: cell-based; conditions: Enterococcus gallinarum 245
Procedure: as §2

[11] = tested on: Staphylococcus epidermidis 270; assay: broth micro-dilution MIC; type: cell-based
Procedure: as §2

[12] = tested on: Staphylococcus haemolyticus 105; assay: broth micro-dilution MIC; type: cell-based
Procedure: as §2

[13] = tested on: Staphylococcus haemolyticus 415; assay: broth micro-dilution MIC; type: cell-based
Procedure: as §2

[14] = tested on: Streptococcus pneumoniae P1; assay: broth micro-dilution MIC; type: cell-based
Procedure: as §2

[15] = tested on: vancomycin-resistant enterococci; assay: broth micro-dilution, mean geometric MIC; type: cell-based, Enterococcus faecium and Enterococcus faecalis; conditions: enterococci, 24-hour incubation
[16] = tested on: vancomycin-susceptible enterococci; assay: broth micro-dilution, mean geometric MIC; type: cell-based, Enterococcus faecium and Enterococcus faecalis; conditions: enterococci, 24-hour incubation
[17] = tested on: Staphylococcus aureus SA1199A; assay: broth micro-dilution MIC; type: cell-based
Procedure: as §1

[18] = tested on: Staphylococcus aureus SA1199; assay: broth micro-dilution MIC; type: cell-based
Procedure: as §1

Entercoccus faecium 2041 = assay: broth micro-dilution MIC; type: cell-based; conditions: Entercoccus faecium 2041
Procedure: as §2

Structure (SMILES)	MIC [1] [µg/mL]	MIC [2] [µg/mL]	MIC [3] [µg/mL]	MIC (Entercoccus faecium 276) [µg/mL]	MIC [4] [µg/mL]	MIC [5] [µg/mL]	MIC [6] [µg/mL]	MIC [7] [µg/mL]	MIC [8] [µg/mL]	MIC [9] [µg/mL]	MIC (Entercoccus faecium 180) [µg/mL]	MIC [10] [µg/mL]	MIC [11] [µg/mL]	MIC [12] [µg/mL]	MIC [13] [µg/mL]	MIC [14] [µg/mL]	mean geometric MIC, Vancomycin Resistant Strains [15] [µg/mL]	mean geometric MIC, Vancomycin Sensitive Strains [16] [µg/mL]	MIC [17] [µg/mL]	MIC (Entercoccus faecium 2041) [µg/mL]	further results
CNC(CC(C)C)C(=O)NC1C(=O)NC(CC(N)=O)C(=O)NC2C(=O)NC3C(=O)NC(C(=O)NC(C(=O)O)c4cc(O)cc(O)c4-c4cc3ccc4O)C(OC3CC(C)(N)C(O)C(C)O3)c3ccc(c(Cl)c3)Oc3cc2cc(c3OC2OC(CO)C(O)C(O)C2OC2CC(C)(NCc3ccc(Cl)c(C(=O)c4ccccc4)c3Cl)C(O)C(C)O2)Oc2ccc(cc2Cl)C1O (stereo not shown) [Compound 133]	1 (≈ 0.539 µM)	2 (≈ 1.08 µM)	≤ 0.06	1 (≈ 0.539 µM)	2 (≈ 1.08 µM)	1 (≈ 0.539 µM)	1 (≈ 0.539 µM)	0.5 (≈ 0.269 µM)	2 (≈ 1.08 µM)	≤ 0.06	1 (≈ 0.539 µM)	2 (≈ 1.08 µM)	1 (≈ 0.539 µM)	2 (≈ 1.08 µM)	2 (≈ 1.08 µM)	≤ 0.06	4.0	0.13	–	–	–
CNC(CC(C)C)C(=O)NC1C(=O)NC(CC(N)=O)C(=O)NC2C(=O)NC3C(=O)NC(C(=O)NC(C(=O)O)c4cc(O)cc(O)c4-c4cc3ccc4O)C(OC3CC(C)(N)C(O)C(C)O3)c3ccc(c(Cl)c3)Oc3cc2cc(c3OC2OC(CO)C(O)C(O)C2OC2CC(C)(NCc3ccc(S(=O)(=O)c4ccc(Cl)cc4)cc3)C(O)C(C)O2)Oc2ccc(cc2Cl)C1O (stereo not shown) [Compound 148]	1 (≈ 0.538 µM)	0.5 (≈ 0.269 µM)	≤ 0.06	≤ 0.06	1 (≈ 0.538 µM)	1 (≈ 0.538 µM)	–	≤ 0.06	2 (≈ 1.08 µM)	≤ 0.06	–	2 (≈ 1.08 µM)	0.5 (≈ 0.269 µM)	1 (≈ 0.538 µM)	2 (≈ 1.08 µM)	≤ 0.06	0.15	0.052	≤ 0.06	≤ 0.06	MIC [18]: 2 µg/mL (≈ 1.08 µM)
CNC(CC(C)C)C(=O)NC1C(=O)NC(CC(N)=O)C(=O)NC2C(=O)NC3C(=O)NC(C(=O)NC(C(=O)O)c4cc(O)cc(O)c4-c4cc3ccc4O)C(OC3CC(C)(N)C(O)C(C)O3)c3ccc(c(Cl)c3)Oc3cc2cc(c3OC2OC(CO)C(O)C(O)C2OC2CC(C)(NCc3ccc(Nc4ccccc4)cc3)C(O)C(C)O2)Oc2ccc(cc2Cl)C1O (stereo not shown) [Compound 160]	1 (≈ 0.564 µM)	≤ 0.06	≤ 0.06	2 (≈ 1.13 µM)	2 (≈ 1.13 µM)	1 (≈ 0.564 µM)	0.21 (≈ 0.118 µM)	4 (≈ 2.26 µM)	4 (≈ 2.26 µM)	≤ 0.06	0.5 (≈ 0.282 µM)	8 (≈ 4.51 µM)	1 (≈ 0.564 µM)	8 (≈ 4.51 µM)	8 (≈ 4.51 µM)	≤ 0.06	9.5	0.22	–	≤ 0.06	–
CNC(CC(C)C)C(=O)NC1C(=O)NC(CC(N)=O)C(=O)NC2C(=O)NC3C(=O)NC(C(=O)NC(C(=O)O)c4cc(O)cc(O)c4-c4cc3ccc4O)C(OC3CC(C)(N)C(O)C(C)O3)c3ccc(c(Cl)c3)Oc3cc2cc(c3OC2OC(CO)C(O)C(O)C2OC2CC(C)(NCc3cccc(OC(=O)c4ccccc4)c3)C(O)C(C)O2)Oc2ccc(cc2Cl)C1O (stereo not shown) [Compound 162]	≤ 0.06	≤ 0.06	≤ 0.06	≤ 0.06	0.5 (≈ 0.277 µM)	≤ 0.06	–	≤ 0.06	≤ 0.06	≤ 0.06	≤ 0.06	2 (≈ 1.11 µM)	≤ 0.06	–	2 (≈ 1.11 µM)	≤ 0.06	4.8	0.12	≤ 0.06	≤ 0.06	MIC [18]: ≤ 0.06 µg/mL
CNC(CC(C)C)C(=O)NC1C(=O)NC(CC(N)=O)C(=O)NC2C(=O)NC3C(=O)NC(C(=O)NC(C(=O)O)c4cc(O)cc(O)c4-c4cc3ccc4O)C(OC3CC(C)(N)C(O)C(C)O3)c3ccc(c(Cl)c3)Oc3cc2cc(c3OC2OC(CO)C(O)C(O)C2OC2CC(C)(NCC3=CCC(C(C)C)CC3)C(O)C(C)O2)Oc2ccc(cc2Cl)C1O (stereo not shown) [Compound 171]	≤ 0.06	–	≤ 0.06	0.125 (≈ 0.0723 µM)	1 (≈ 0.578 µM)	1 (≈ 0.578 µM)	0.5 (≈ 0.289 µM)	≤ 0.06	≤ 0.06	≤ 0.06	1 (≈ 0.578 µM)	8 (≈ 4.63 µM)	1 (≈ 0.578 µM)	4 (≈ 2.31 µM)	8 (≈ 4.63 µM)	≤ 0.06	9.5	0.22	≤ 0.06	≤ 0.06	–
